From patent US7078499B2, “Nucleotide analogues comprising a reporter moiety and a polymerase enzyme blocking moiety” (GE Healthcare UK Limited, priority 2000, dated 2006)

How the values were obtained:
Type in all cases: biochemical
AMV RT = experiment: Mesophilic reverse transcriptase reaction, AMV RT; parameters: key: −: No extension within assay time; +/−: up to 25% of primer extended by at least one base within assay time; +: up to 50% of primer extended by at least one base within assay time; ++: up to 75% of primer extended by at least one base within assay time; +++: essentially all primer extended by at least one base within assay time; settings: RNA template, final enzyme concentration of 4 units/μl
Description: (§1) DNA polymerase assays were performed using Sequence 1 as primer and Sequence 2 as template. • Sequence 1 5′[Cy3]TAACTCATTAACAGGATC 3′ • Sequence 2 5′AT TCGCGGTATTCTGGTATGAAGCTTTTAGATCCTGTTAATGAGTTA GTA3′
(§2) The template (Sequence 2) was designed such that the base (underlined) immediately adjacent to the 3′ end of the hybridised primer is complementary to the nucleotide test compound. Nucleotide test compounds were compounds (6) (4′-C-(glycylaminomethyl)thymidine triphosphate), (8) (4′-C-(N-trifluoroacetyaminomethyl)thymidine triphosphate) and (9) (4′-C-(aminomethyl)thymidine triphosphate) as described above.
(§3) Primer extension reactions were performed using the above primers in the presence of 40 to 80 μM of nucleotide triphosphates. Positive control reactions contained all four native nucleotide triphosphates. For the other reactions the TTP was replaced with either a 2:1 ratio of […] for the terminator control, or entirely by the test compound The enzymes were used at a final concentration of 0.175 units/μl and a magnesium ion concentration of 2.5 mM in buffers supplied by the manufacturer. The primer and template concentrations were 0.5 pmol/μl and 2 pmol/μl respectively.
(§4) Extension reactions preformed with mesophilic polymerases were carried out by mixing all the components of the reaction except the enzyme and heating to 70° C. for 5 min. After the reactions had cooled to room temperature 0.175 units of the enzyme were added and the reactions heated to 37° C. for 20–40 minutes. The following enzymes were used: T7 DNA polymerase (T7); Sequenase 2™ (Seq); Klenow fragment of DNA polymerase 1 (Klen); phi-29 DNA polymerase (Phi-29); T4 DNA polymerase (T4) (all from AP Biotech) and Bst DNA polymerase (Bst) (Cambio Ltd).
Reverse transcriptase reactions were performed essentially as described above for thermophilic and mesophilic enzymes. The template for these reactions was the RNA equivalent of sequence 2. […]
Gels were scanned for Cy3 fluorescence on a Molecular Dynamics Fluorimager and the data analysed using Molecular Dynamics ImageQuant 5 software. […]

Sequenase 2™ = target: T1, Sequenase 2™ (Escherichia phage T7, UniProt P00581, DEL118-145); experiment: Mesophilic DNA polymerase primer extension, Seq; parameters: key to result of incorporation (termination / further chain extension): T: Incorporation results in termination; E: Incorporation permits further chain extension; T/E: Predominant product is primer extended by one base, but evidence of some further extension also observed; settings: DNA template, 37° C. for 20–40 minutes; for primer extended by at least one base within assay time (grade): TTP replaced entirely by test compound
T1 construct: purchased AP Biotech
T1 sequence (P0AA25 2-109, stated change not applied): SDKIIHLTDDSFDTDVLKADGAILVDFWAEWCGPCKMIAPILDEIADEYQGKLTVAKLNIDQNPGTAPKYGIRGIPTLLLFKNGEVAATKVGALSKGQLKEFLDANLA
T1 sequence (P00581 other isoform, or with tags, fused parts or gaps DEL118-145): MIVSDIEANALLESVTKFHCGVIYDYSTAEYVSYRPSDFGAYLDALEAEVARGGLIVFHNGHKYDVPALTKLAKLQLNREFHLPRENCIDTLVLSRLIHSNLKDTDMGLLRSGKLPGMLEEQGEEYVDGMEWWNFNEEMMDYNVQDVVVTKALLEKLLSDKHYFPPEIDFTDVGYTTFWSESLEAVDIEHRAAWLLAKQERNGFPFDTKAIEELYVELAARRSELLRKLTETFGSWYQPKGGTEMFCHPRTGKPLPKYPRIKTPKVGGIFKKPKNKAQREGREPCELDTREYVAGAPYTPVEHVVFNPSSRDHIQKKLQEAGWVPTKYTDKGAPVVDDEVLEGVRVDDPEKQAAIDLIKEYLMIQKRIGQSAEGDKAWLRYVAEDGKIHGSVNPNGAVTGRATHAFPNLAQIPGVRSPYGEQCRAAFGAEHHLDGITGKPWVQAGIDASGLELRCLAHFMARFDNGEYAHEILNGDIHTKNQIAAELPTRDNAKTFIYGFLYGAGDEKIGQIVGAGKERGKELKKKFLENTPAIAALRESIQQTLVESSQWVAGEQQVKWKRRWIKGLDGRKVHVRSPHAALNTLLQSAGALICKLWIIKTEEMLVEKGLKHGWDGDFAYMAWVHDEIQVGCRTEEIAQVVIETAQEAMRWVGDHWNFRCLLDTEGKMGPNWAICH
Description: DNA polymerase assays were performed using Sequence 1 as primer and Sequence 2 as template. • Sequence 1 5′[Cy3][…] 3′ • Sequence 2 5′AT […]3′
as §2, §3, §4
(§5) The reactions were stopped by adding a 0.5 volume aliquot of 80% formamide containing 0.1% (w/v) bromophenol blue and 0.1% (w/v) cresol blue. The reaction products were separated by denaturing gel electrophoresis at a constant power of 45 W on 16% polyacrylamide gels containing 50% urea.
(§6) Gels were scanned for Cy3 fluorescence on a Molecular Dynamics Fluorimager and the data analysed using Molecular Dynamics ImageQuant 5 software.
(§7) The incorporation of a test nucleotide triphosphate results in the appearance on a polyacrylamide gel of a single band corresponding to a single base extension product. If, however, the enzyme adds additional bases then further bands would be observed that corresponded to either the full-length product or positions of other complementary bases in the template.

Bst DNA polymerase = target: T2, Bst DNA polymerase (Geobacillus stearothermophilus, UniProt P52026); experiment: Mesophilic DNA polymerase primer extension, Bst; parameters: key to result of incorporation (termination / further chain extension): T: Incorporation results in termination; E: Incorporation permits further chain extension; T/E: Predominant product is primer extended by one base, but evidence of some further extension also observed; settings: DNA template, 37° C. for 20–40 minutes; for primer extended by at least one base within assay time (grade): TTP replaced entirely by test compound
T2 construct: purchased Cambio Ltd
T2 sequence (P52026 1-876): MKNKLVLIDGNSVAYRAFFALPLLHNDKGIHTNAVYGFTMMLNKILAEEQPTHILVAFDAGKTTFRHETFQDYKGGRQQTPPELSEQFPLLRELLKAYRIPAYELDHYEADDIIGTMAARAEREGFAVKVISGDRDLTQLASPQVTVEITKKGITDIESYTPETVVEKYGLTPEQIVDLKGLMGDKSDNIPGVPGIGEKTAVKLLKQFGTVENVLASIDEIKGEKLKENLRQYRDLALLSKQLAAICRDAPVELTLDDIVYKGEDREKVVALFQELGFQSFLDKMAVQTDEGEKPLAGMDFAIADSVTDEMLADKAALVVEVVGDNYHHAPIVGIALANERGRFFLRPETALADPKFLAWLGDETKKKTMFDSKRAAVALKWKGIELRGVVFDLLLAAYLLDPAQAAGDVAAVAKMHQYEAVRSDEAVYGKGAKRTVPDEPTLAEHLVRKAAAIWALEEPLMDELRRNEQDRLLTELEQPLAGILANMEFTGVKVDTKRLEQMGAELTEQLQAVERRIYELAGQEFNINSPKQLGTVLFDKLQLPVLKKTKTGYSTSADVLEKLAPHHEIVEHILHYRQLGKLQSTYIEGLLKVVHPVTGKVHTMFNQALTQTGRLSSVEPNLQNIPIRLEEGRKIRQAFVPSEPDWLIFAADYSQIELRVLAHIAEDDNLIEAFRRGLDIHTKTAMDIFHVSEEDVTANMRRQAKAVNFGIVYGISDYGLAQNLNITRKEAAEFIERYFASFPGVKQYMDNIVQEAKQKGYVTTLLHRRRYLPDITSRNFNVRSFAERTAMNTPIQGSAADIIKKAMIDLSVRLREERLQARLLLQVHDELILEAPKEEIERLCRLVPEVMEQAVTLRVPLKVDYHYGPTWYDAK
Description: as §1, §2, §3, §4, §5, §6, §7

Compound	primer extended by at least one base within assay time (grade) (AMV RT)	result of incorporation (termination / further chain extension) (Sequenase 2™)	primer extended by at least one base within assay time (grade) (Sequenase 2™)	result of incorporation (termination / further chain extension) (Bst DNA polymerase)	primer extended by at least one base within assay time (grade) (Bst DNA polymerase)
Cc1cn([C@H]2C[C@H](O)[C@@](CNC(=O)C(F)(F)F)(COP(=O)(O)OP(=O)(O)OP(=O)(O)O)O2)c(=O)[nH]c1=O [compound (8), 4′-C-(N-trifluoroacetylaminomethyl)thymidine triphosphate]	−	T	+ (up to 50% of primer extended by at least one base within assay time)	T	+ (up to 50% of primer extended by at least one base within assay time)
4′-C-(Aminomethyl)thymidine triphosphate [compound (9)]	−	T	+ (up to 50% of primer extended by at least one base within assay time)	T	+ (up to 50% of primer extended by at least one base within assay time)
4′-C-(Glycylaminomethyl)thymidine triphosphate [compound (6)]	−	T	+ (up to 50% of primer extended by at least one base within assay time)	T	+ (up to 50% of primer extended by at least one base within assay time)
